Source: patent US10913757B2, “Hydroxycinnamic derivatives, methods and uses thereof” (UNIVERSIDADE DO PORTO, priority 2016, dated 2021)

Columns and labels:
Type in all cases: biochemical
[1] = DPPH radical scavenging activity (TAC assay); conditions: ethanol, absorbance 515 nm
Source text: (§1) In an embodiment, the AntiOxCINs antioxidant ranking activity hierarchy was established by in vitro non-cell methods. The selected total antioxidant capacity (TAC) assays (DPPH, ABTS and GO) involved the spectrophotometric measurement of the radical absorbance decrease as a result of an in situ radical deactivation by an antioxidant. Compounds with higher antioxidant activity display lower IC50 values. […] This decrease was attenuated/ameliorated by the increment of the spacer length and/or the introduction of additional hydroxyl group in the aromatic ring.
(§2) The radical scavenging activity of AntiOxCINs was evaluated by means of total antioxidant capacity assays based on DPPH., ABTS.^+ and GO. radicals. All these methods involved the spectrophotometric measurement of the absorbance decrease resulting from radical (DPPH., ABTS.^+ or GO.) deactivation with an antioxidant. The results were expressed in IC50, which is defined as the minimum antioxidant concentration necessary to reduce the amount of radical by 50%. Antioxidant assays were performed in a multiplate reader (Powerwave XS Microplate Reader) of Bio-Tech instruments.
In an embodiment, the DPPH. radical scavenging activity was performed as follows: solutions of the test compounds with increasing concentrations (range between 0 μM and 500 μM) were prepared in ethanol. A DPPH′ ethanolic solution (6.85 mM) was also prepared and then diluted to reach the absorbance of 0.72±0.02 at 515 nm. Each compound solution (20 μL) was added to 180 μL of DPPH′ solution in triplicate, and the absorbance at 515 nm was recorded minutely over 45 minutes. […] Dose-response curves were established for the determination of IC50 values. Data are means±SEM of three independent experiments.

[2] = ABTS radical cation scavenging activity (TAC assay); conditions: ethanol
Source text: as §1, §2
In an embodiment, the ABTS.^+ scavenging activity was evaluated as follows: ethanolic solutions of the test compounds with increasing concentrations (range between 10 μM and 500 μM) were prepared. ABTS.^+ radical cation solution was obtained by addition of 150 mM aqueous potassium persulfate solution (163 μL) to 10 mL of 7 mM aqueous ABTS solution followed by storage in the dark at room temperature for 16 h (2.45 mM final concentration). The solution was then diluted in ethanol to reach the absorbance of 0.72±0.02. After addition of the compound (20 μL), in triplicate, to ABTS.^+ solution (180 μL) the spectrophotometric measurement was carried out each minute over 15 minutes. […] Dose-response curves were established for the determination of IC50 values. Data are means±SEM of three independent experiments.

[3] = system: rat liver mitochondria (RLM); experiment: Mitochondrial transmembrane electric potential (ΔΨ) of RLM, safranine fluorescence
Procedure: In an embodiment, and as an example, AntiOxCINs and MitoQ toxicity effects on the mitochondrial bioenergetics, namely on RLM ΔΨ and mitochondrial respiration parameters, were measured. The […] represents the main component of the electrochemical gradient generated by mitochondrial respiration and accounts for more than 90% of the total available energy. For mitochondrial respiration assays, glutamate/malate (for complex I) and succinate (for complex II) were used as substrates. In addition, the mitochondrial oxidative phosphorylation coupling index, known as respiratory control ratio (RCR, state 3/state 4 respiration) and ADP/O index (the coupling between ATP synthesis and oxygen consumption) were also calculated. AntiOxCINs and MitoQ were tested at antioxidant-relevant concentrations, with 10 μM being the highest concentration.
In an embodiment, the evaluation of AntiOxCINs functional mitochondrial toxicity profile was performed in rat liver mitochondria (RLM). […] The protein concentration was determined by the biuret assay using BSA as a standard.
Then, 1 μM FCCP was added at the end of all experiments to depolarize mitochondria. ΔΨ was calculated using a calibration curve obtained when RLM were incubated in a K^+-free reaction medium containing 200 mM sucrose, 1 mM NaH2PO4, 10 mM Tris (pH 7.4) and 10 μM EGTA, supplemented with 0.4 μg valinomicin. […] “Repolarization” corresponded to the recovery of membrane potential after the complete phosphorylation of ADP added. Lag phase reflected the time required to phosphorylate the added ADP. […] Data are means±SEM of five independent experiments.

Compound | IC50 [1] [µM] | IC50 [2] [µM] | ADP-induced depolarization (ΔΨ in - mV) ([3]; glutamate/malate, 2.5 μM) [mV] | Lag Phase ([3]; glutamate/malate, 2.5 μM) [s] | Maximum potential (ΔΨ in - mV) ([3]; glutamate/malate, 2.5 μM) [mV] | Repolarization Potential (ΔΨ in - mV) ([3]; glutamate/malate, 2.5 μM) [mV] | ADP-induced depolarization (ΔΨ in - mV) ([3]; glutamate/malate, 5 μM) [mV] | Lag Phase ([3]; glutamate/malate, 5 μM) [s] | Maximum potential (ΔΨ in - mV) ([3]; glutamate/malate, 5 μM) [mV] | Repolarization Potential (ΔΨ in - mV) ([3]; glutamate/malate, 5 μM) [mV] | ADP-induced depolarization (ΔΨ in - mV) ([3]; glutamate/malate, 10 μM) [mV] | Lag Phase ([3]; glutamate/malate, 10 μM) [s] | Maximum potential (ΔΨ in - mV) ([3]; glutamate/malate, 10 μM) [mV] | Repolarization Potential (ΔΨ in - mV) ([3]; glutamate/malate, 10 μM) [mV] | ADP-induced depolarization (ΔΨ in - mV) ([3]; succinate, 2.5 μM) [mV] | Lag Phase ([3]; succinate, 2.5 μM) [s] | Maximum potential (ΔΨ in - mV) ([3]; succinate, 2.5 μM) [mV] | Repolarization Potential (ΔΨ in - mV) ([3]; succinate, 2.5 μM) [mV] | ADP-induced depolarization (ΔΨ in - mV) ([3]; succinate, 5 μM) [mV] | Lag Phase ([3]; succinate, 5 μM) [s] | other results
CS(=O)(=O)[O-].O=C(/C=C/c1ccc(O)c(O)c1)NCCCCCC[P+](c1ccccc1)(c1ccccc1)c1ccccc1 [AntiOxCIN2, (E)-(6-(3-(3,4-dihydroxyphenyl)prop-2-enamido)hexyl)triphenylphosphonium methanesulfonate] | 29.5 | 30.5 | 186.2 ± 8.9 | 81.2 ± 7.2 | 208.4 ± 10.1 | 205.1 ± 9.0 | 199.2 ± 13.3 | 79.5 ± 7.0 | 214.8 ± 11.7 | 214.0 ± 12.5 | 193.3 ± 9.1 | 88.7 ± 25.1 | 209.8 ± 9.4 | 202.0 ± 8.0 | 169.3 ± 4.0 | 101.2 ± 7.5 | 190.5 ± 5.9 | 191.5 ± 7.5 | 174.9 ± 5.5 | 64.6 ± 19.4 | Maximum potential (ΔΨ in - mV) ([3]; succinate, 5 μM): 189.7 ± 8.0 mV; Repolarization Potential (ΔΨ in - mV) ([3]; succinate, 5 μM): 189.5 ± 9.0 mV; ADP-induced depolarization (ΔΨ in - mV) ([3]; succinate, 10 μM): 178.7 ± 6.3 mV; Lag Phase ([3]; succinate, 10 μM): 46.2 ± 12.4 s; Maximum potential (ΔΨ in - mV) ([3]; succinate, 10 μM): 190.0 ± 6.3 mV; Repolarization Potential (ΔΨ in - mV) ([3]; succinate, 10 μM): 186.6 ± 7.1 mV
CS(=O)(=O)[O-].O=C(/C=C/c1ccc(O)c(O)c1)NCCCCCCCC[P+](c1ccccc1)(c1ccccc1)c1ccccc1 [AntiOxCIN3, (E)-(8-(3-(3,4-dihydroxyphenyl)acrylamido)octyl)triphenylphosphoniummethanesulfonate] | 28 | 27.9 | 199.4 ± 7.4 | 65.8 ± 6.6 | 238.0 ± 9.8 | 234.8 ± 10.3 | 200.7 ± 5.5 | 68.2 ± 9.6 | 238.9 ± 8.6 | 235.0 ± 8.4 | 302.5 ± 6.3 | 73.8 ± 12.1 | 238.0 ± 6.7 | 231.5 ± 7.2 | 171.5 ± 7.3 | 84.6 ± 16.7 | 191.2 ± 9.1 | 186.7 ± 9.3 | 174.5 ± 7.7 | 92.0 ± 10.3 | initial slight hyperpolarization ([3]; 2.5 μM): 10 mV; Maximum potential (ΔΨ in - mV) ([3]; succinate, 5 μM): 193.3 ± 7.6 mV; Repolarization Potential (ΔΨ in - mV) ([3]; succinate, 5 μM): 190.4 ± 8.3 mV; ADP-induced depolarization (ΔΨ in - mV) ([3]; succinate, 10 μM): 172.2 ± 7.5 mV; Lag Phase ([3]; succinate, 10 μM): 79.8 ± 17.6 s; Maximum potential (ΔΨ in - mV) ([3]; succinate, 10 μM): 189.7 ± 7.8 mV; Repolarization Potential (ΔΨ in - mV) ([3]; succinate, 10 μM): 184.2 ± 7.6 mV
CS(=O)(=O)[O-].O=C(/C=C/c1cc(O)c(O)c(O)c1)NCCCCCC[P+](c1ccccc1)(c1ccccc1)c1ccccc1 [AntiOxCIN4, (E)-(6-(3-(3,4,5-trihydroxyphenyl)prop-2-enamido)hexyl)triphenylphosphonium methanesulfonate] | 19 | 12.2 | 188.5 ± 9.6 | 84.7 ± 7.0 | 214.6 ± 10.9 | 211.8 ± 10.1 | 193.8 ± 11.8 | 81.7 ± 6.7 | 216.4 ± 13.1 | 216.1 ± 12.7 | 192.7 ± 14.4 | 65.7 ± 15.1 | 216.8 ± 15.7 | 207.7 ± 15.6 | 171.2 ± 3.7 | 95.6 ± 7.5 | 192.0 ± 4.0 | 192.7 ± 5.4 | 176.2 ± 5.0 | 97.8 ± 18.8 | Maximum potential (ΔΨ in - mV) ([3]; succinate, 5 μM): 197.6 ± 6.1 mV; Repolarization Potential (ΔΨ in - mV) ([3]; succinate, 5 μM): 195.4 ± 8.2 mV; ADP-induced depolarization (ΔΨ in - mV) ([3]; succinate, 10 μM): 170.3 ± 5.2 mV; Lag Phase ([3]; succinate, 10 μM): 101.4 ± 23.75 s; Maximum potential (ΔΨ in - mV) ([3]; succinate, 10 μM): 187.4 ± 8.5 mV; Repolarization Potential (ΔΨ in - mV) ([3]; succinate, 10 μM): 183.5 ± 10.5 mV
CS(=O)(=O)[O-].O=C(/C=C/c1cc(O)c(O)c(O)c1)NCCCCCCCC[P+](c1ccccc1)(c1ccccc1)c1ccccc1 [AntiOxCIN5, (E)-(8-(3-(3,4,5-trihydroxyphenyl)acrylamido)octyl)triphenylphosphonium methanesulfonate] | 14.7 | 8.7 | 207.5 ± 6.1 | 74.4 ± 10.7 | 249.8 ± 5.4 | 244.7 ± 5.9 | 207.5 ± 5.6 | 69.8 ± 13.3 | 244.7 ± 7.0 | 236.5 ± 6.8 | 184.6 ± 18.7 | 53.2 ± 7.6 | 215.1 ± 22.3 | 199.9 ± 26.0 | 177.2 ± 7.7 | 80.2 ± 11.8 | 196.2 ± 8.6 | 190.6 ± 7.8 | 173.6 ± 6.8 | 67.2 ± 13.4 | initial slight hyperpolarization ([3]; 2.5 μM): 25 mV; Maximum potential (ΔΨ in - mV) ([3]; succinate, 5 μM): 190.1 ± 6.8 mV; Repolarization Potential (ΔΨ in - mV) ([3]; succinate, 5 μM): 184.0 ± 7.1 mV; ADP-induced depolarization (ΔΨ in - mV) ([3]; succinate, 10 μM): 162.2 ± 7.7 mV; Lag Phase ([3]; succinate, 10 μM): 58.4 ± 10.2 s; Maximum potential (ΔΨ in - mV) ([3]; succinate, 10 μM): 180.8 ± 4.0 mV; Repolarization Potential (ΔΨ in - mV) ([3]; succinate, 10 μM): 168.4 ± 9.3 mV
O=C(O)/C=C/c1ccc(O)c(O)c1 [Caffeic acid, caffeic acid, reference compound] | 18.1 | 17.9 |  |  |  |  |  |  |  |  |  |  |  |  |  |  |  |  |  |  | 
